Assay results published in ChEMBL document CHEMBL1201862, “PubChem BioAssay data set” (2004).
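Protocol summary: plate cells (96-well), add compound at 5 concentrations, incubate 48 h, interpolate endpoints linearly. GI50 marks 50% less growth.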 Active and inactive are the calls of the source. Rule as the data show it: active = GI50 up to about 1.1 µM and inactive = higher.

Key:
Assay in all cases: NCI tumour cell line growth inhibition, 48 h
786-0 = tested on: 786-0
A498 = tested on: A498
A549 = tested on: A549
ACHN = tested on: ACHN
BT-549 = tested on: BT-549
CAKI-1 = tested on: CAKI-1
CCRF-CEM = tested on: CCRF-CEM
COLO 205 = tested on: COLO 205
DU-145 = tested on: DU-145
EKVX = tested on: EKVX
HCT-116 = tested on: HCT-116
HCT-15 = tested on: HCT-15
HOP-62 = tested on: HOP-62
HOP-92 = tested on: HOP-92
HT-29 = tested on: HT-29
Hs-578T = tested on: Hs-578T
IGROV-1 = tested on: IGROV-1
K562 = tested on: K562
KM12 = tested on: KM12
LOX IMVI = tested on: LOX IMVI
M14 = tested on: M14
MCF7 = tested on: MCF7
MDA-MB-231 = tested on: MDA-MB-231
MDA-MB-435 = tested on: MDA-MB-435
MDA-N = tested on: MDA-N
MOLT-4 = tested on: MOLT-4
NCI-H226 = tested on: NCI-H226
NCI-H23 = tested on: NCI-H23
NCI-H460 = tested on: NCI-H460
NCI/ADR-RES = tested on: NCI/ADR-RES
OVCAR-3 = tested on: OVCAR-3
OVCAR-5 = tested on: OVCAR-5
OVCAR-8 = tested on: OVCAR-8
PC-3 = tested on: PC-3
RPMI-8226 = tested on: RPMI-8226
SF-268 = tested on: SF-268
SF-295 = tested on: SF-295
SF-539 = tested on: SF-539
SK-MEL-28 = tested on: SK-MEL-28
SK-MEL-2 = tested on: SK-MEL-2
SK-MEL-5 = tested on: SK-MEL-5
SK-OV-3 = tested on: SK-OV-3
SN12C = tested on: SN12C
SNB-19 = tested on: SNB-19
SNB-75 = tested on: SNB-75
SR = tested on: SR
SW-620 = tested on: SW-620
T47D = tested on: T47D
TK-10 = tested on: TK-10
U-251 = tested on: U-251
UACC-257 = tested on: UACC-257
UACC-62 = tested on: UACC-62
UO-31 = tested on: UO-31
HCC 2998 = tested on: HCC 2998
HL-60 = tested on: HL-60
Malme-3M = tested on: Malme-3M
NCI-H522 = tested on: NCI-H522
OVCAR-4 = tested on: OVCAR-4
RXF 393 = tested on: RXF 393

Question: For COc1ccc(/C=N/n2c(=O)[nH]c3ccccc3c2=O)cc1, which GI50 (786-0) is on record?
Answer: > 100 µM (inactive)

Question: What about the GI50 (A498) of the same molecule?
Answer: > 100 µM (inactive)

Question: What about the GI50 (A549) of the same molecule?
Answer: > 100 µM (inactive)

Question: What about the GI50 (ACHN) of the same molecule?
Answer: > 100 µM (inactive)

Question: And the GI50 (BT-549)?
Answer: > 100 µM (inactive)

Question: And the GI50 (CAKI-1)?
Answer: > 100 µM (inactive)

Question: And the GI50 (CCRF-CEM)?
Answer: > 100 µM (inactive)

Question: And the GI50 (COLO 205)?
Answer: > 100 µM (inactive)

Question: What about the GI50 (DU-145) of the same molecule?
Answer: > 100 µM (inactive)

Question: And the GI50 (EKVX)?
Answer: 59.8 µM (inactive)

Question: What about the GI50 (HCT-116) of the same molecule?
Answer: > 100 µM (inactive)

Question: And the GI50 (HCT-15)?
Answer: > 100 µM

Question: And the GI50 (HOP-62)?
Answer: > 100 µM (inactive)

Question: And the GI50 (HOP-92)?
Answer: > 100 µM (inactive)

Question: What about the GI50 (HT-29) of the same molecule?
Answer: > 100 µM (inactive)

Question: And the GI50 (Hs-578T)?
Answer: 36.4 µM (inactive)

Question: And the GI50 (IGROV-1)?
Answer: > 100 µM (inactive)

Question: What about the GI50 (K562) of the same molecule?
Answer: > 100 µM (inactive)

Question: And the GI50 (KM12)?
Answer: > 100 µM (inactive)

Question: And the GI50 (LOX IMVI)?
Answer: > 100 µM (inactive)

Question: What about the GI50 (M14) of the same molecule?
Answer: > 100 µM (inactive)

Question: And the GI50 (MCF7)?
Answer: > 100 µM (inactive)

Question: And the GI50 (MDA-MB-231)?
Answer: > 100 µM (inactive)

Question: And the GI50 (MDA-MB-435)?
Answer: > 100 µM (inactive)

Question: What about the GI50 (MDA-N) of the same molecule?
Answer: > 100 µM (inactive)

Question: And the GI50 (MOLT-4)?
Answer: > 100 µM (inactive)

Question: And the GI50 (NCI-H226)?
Answer: > 100 µM (inactive)

Question: And the GI50 (NCI-H23)?
Answer: > 100 µM (inactive)

Question: And the GI50 (NCI-H460)?
Answer: > 100 µM (inactive)

Question: And the GI50 (NCI/ADR-RES)?
Answer: > 100 µM (inactive)

Question: And the GI50 (OVCAR-3)?
Answer: > 100 µM (inactive)

Question: And the GI50 (OVCAR-5)?
Answer: > 100 µM (inactive)

Question: What about the GI50 (OVCAR-8) of the same molecule?
Answer: > 100 µM (inactive)

Question: What about the GI50 (PC-3) of the same molecule?
Answer: > 100 µM (inactive)

Question: What about the GI50 (RPMI-8226) of the same molecule?
Answer: > 100 µM (inactive)

Question: What about the GI50 (SF-268) of the same molecule?
Answer: > 100 µM (inactive)

Question: And the GI50 (SF-295)?
Answer: > 100 µM (inactive)

Question: And the GI50 (SF-539)?
Answer: > 100 µM (inactive)

Question: And the GI50 (SK-MEL-28)?
Answer: > 100 µM (inactive)

Question: What about the GI50 (SK-MEL-2) of the same molecule?
Answer: > 100 µM (inactive)

Question: What about the GI50 (SK-MEL-5) of the same molecule?
Answer: > 100 µM (inactive)

Question: What about the GI50 (SK-OV-3) of the same molecule?
Answer: > 100 µM (inactive)

Question: And the GI50 (SN12C)?
Answer: > 100 µM (inactive)

Question: And the GI50 (SNB-19)?
Answer: > 100 µM (inactive)

Question: And the GI50 (SNB-75)?
Answer: 50.8 µM (inactive)

Question: And the GI50 (SR)?
Answer: > 100 µM (inactive)

Question: What about the GI50 (SW-620) of the same molecule?
Answer: > 100 µM (inactive)

Question: And the GI50 (T47D)?
Answer: > 100 µM (inactive)

Question: And the GI50 (TK-10)?
Answer: > 100 µM (inactive)

Question: What about the GI50 (U-251) of the same molecule?
Answer: > 100 µM (inactive)

Question: What about the GI50 (UACC-257) of the same molecule?
Answer: > 100 µM (inactive)

Question: And the GI50 (UACC-62)?
Answer: > 100 µM (inactive)

Question: What about the GI50 (UO-31) of the same molecule?
Answer: > 100 µM (inactive)

Question: What does the source list for N#Cc1nc(CCc2nc(C#N)c(N)o2)oc1N?
Answer: GI50 (786-0): > 10 µM (inactive); GI50 (A549): > 10 µM (inactive); GI50 (ACHN): > 10 µM (inactive); GI50 (BT-549): > 10 µM (inactive); GI50 (CAKI-1): > 10 µM (inactive); GI50 (CCRF-CEM): > 10 µM (inactive); GI50 (COLO 205): > 10 µM (inactive); GI50 (DU-145): > 10 µM (inactive); GI50 (EKVX): > 10 µM (inactive); GI50 (HCC 2998): > 10 µM (inactive); GI50 (HCT-116): > 10 µM (inactive); GI50 (HCT-15): > 10 µM; GI50 (HL-60): > 10 µM (inactive); GI50 (HOP-62): > 10 µM (inactive); GI50 (HOP-92): > 10 µM (inactive); GI50 (HT-29): > 10 µM (inactive); GI50 (Hs-578T): > 10 µM (inactive); GI50 (IGROV-1): > 10 µM (inactive); GI50 (K562): > 10 µM (inactive); GI50 (KM12): > 10 µM (inactive); GI50 (LOX IMVI): > 10 µM (inactive); GI50 (M14): > 10 µM (inactive); GI50 (MCF7): > 10 µM (inactive); GI50 (MDA-MB-231): > 10 µM (inactive); GI50 (MDA-MB-435): > 10 µM (inactive); GI50 (MDA-N): > 10 µM (inactive); GI50 (MOLT-4): > 10 µM (inactive); GI50 (Malme-3M): > 10 µM (inactive); GI50 (NCI-H226): > 10 µM (inactive); GI50 (NCI-H23): > 10 µM (inactive); GI50 (NCI-H460): > 10 µM (inactive); GI50 (NCI-H522): > 10 µM (inactive); GI50 (NCI/ADR-RES): > 10 µM (inactive); GI50 (OVCAR-4): > 10 µM (inactive); GI50 (OVCAR-5): > 10 µM (inactive); GI50 (OVCAR-8): > 10 µM (inactive); GI50 (PC-3): > 10 µM (inactive); GI50 (RPMI-8226): > 10 µM (inactive); GI50 (RXF 393): > 10 µM (inactive); GI50 (SF-268): > 10 µM (inactive); GI50 (SF-295): > 10 µM (inactive); GI50 (SF-539): > 10 µM (inactive); GI50 (SK-MEL-28): > 10 µM (inactive); GI50 (SK-MEL-5): > 10 µM (inactive); GI50 (SK-OV-3): > 10 µM (inactive); GI50 (SN12C): > 10 µM (inactive); GI50 (SNB-19): > 10 µM (inactive); GI50 (SNB-75): > 10 µM (inactive); GI50 (SR): > 10 µM (inactive); GI50 (SW-620): > 10 µM (inactive); GI50 (T47D): > 10 µM (inactive); GI50 (TK-10): > 10 µM (inactive); GI50 (UACC-257): > 10 µM (inactive); GI50 (UACC-62): > 10 µM (inactive); GI50 (UO-31): > 10 µM (inactive)
